Results published in a melting point compilation (Tetko et al.; mined from patent text by program, amines drawn as free bases though some values may be those of a salt).

Compound	melting point [°C]
CSc1ccc(C(=O)c2cc(-c3cccnc3)c(N3CCOCC3)s2)cc1	127
COc1cc2nc(N3CCN(C(=O)C45CC6CC(CC(C6)C4)C5)CC3)nc(N)c2cc1OC	237 to 240
COc1cc2sc(-c3cccnc3)nc2cc1N=C=S	164 to 166
C=CCOC(=O)c1ccc(N=C(SC)c2ccc(OC)c(C34CC5CC(CC(C5)C3)C4)c2)cc1	50 to 53
O=P(c1ccccc1)(c1ccccc1)c1cc(P(=O)(c2ccccc2)c2ccccc2)ncn1	213 to 215
COC(=O)c1csc(-c2snnc2-c2ccccc2)n1	124
Cc1c(F)c(N2CCC(N)C2)c(F)c2c1c(=O)c(C(=O)O)cn2-c1ccc(F)cc1F (stereo not given)	230 to 232
COc1cccc(CCNC2(c3ccccc3Cl)C(=O)Nc3ccc(Cl)cc32)c1 (stereo not given)	155 to 160
NS(=O)(=O)c1cc(C(=O)O)cc(SCc2ccccc2)c1Sc1ccccc1	208 to 209
CCOC(=O)COC(=O)CN1CCCCCC1=O	33.5 to 35
Cc1c(N)noc1C(F)(F)F	34.5 to 36
O=C(O)C(=O)c1ccc(OCC#Cc2ccccc2)cc1	97 to 99
CC(c1ncncc1Cl)C(O)(Cn1cncn1)c1ccc(F)cc1F (stereo not given)	128
COC(=O)C(c1cc2c(cc1Cl)OCO2)c1c[nH]c2cc(Br)ccc12 (stereo not given)	172 to 174
O=C(O)CCCc1cc2nc(Cl)ccc2n1S(=O)(=O)c1cc(C(F)(F)F)cc(C(F)(F)F)c1	155 to 164
COC(=O)c1cc(N)c(Oc2ccccc2)c(N)c1	140 to 142
COc1cc(-c2ncc(C(F)(F)F)cc2Cl)c(F)cc1Cl	105 to 106
O[C@H]1c2ccc(OCc3ccccc3)cc2OC[C@H]1Oc1cccnc1 (relative stereo)	73 to 75
FC1(F)CCN(c2cccc3c2OCCNC3)C1	54
CCOC(=O)c1cc2cc(-c3ccc(N)cc3)ccc2o1	95 to 97
CCOC(=O)c1[nH]c(I)c(C)c1CC	122 to 124
Cc1c2n(c(=O)c3c(O)cccc13)CCCS2	110 to 112
CC#CCCn1ncc2c(NC(=O)CC)c3c(nc21)CN(CCC)C3=O	130 to 132
COC(=O)c1cncnc1NCc1ccncc1	111 to 112
CCCN1NCc2c(C3C(=O)Nc4ccc(Br)cc43)ncnc21 (stereo not given)	295 to 300

Compound	melting point [°C]
CCOc1ccc2c(c1)C(C)=CC(C)(C)N2C(=O)OC	54.5 to 56.5
O=c1[nH]c2ccccc2n1CCN1CCN(c2cc(C(F)(F)F)ccc2O)CC1	158 to 160
Cc1cnccc1C(CCC(=O)O)C(=O)c1cccc(OCc2ccccc2)c1 (racemic)	55 to 57
O=C1OC(O)c2ccc([N+](=O)[O-])cc21 (stereo not given)	157 to 160
O=C1c2nccc(-c3ccccc3NC(=O)C(F)(F)F)c2C(=O)c2c([N+](=O)[O-])ccnc21	158
CC(C)(C)c1ccc(C#N)cc1NC(=O)NCc1ccccc1	160 to 161
Cc1oc(-c2ccc(C(F)(F)F)cc2)nc1COc1cc(F)cc(CN(O)C(N)=O)c1	156 to 157
CC(=O)c1c(O)cccc1OCC(O)COc1ccccc1C (stereo not given)	101 to 102
CCn1c(COC(=O)NC(=O)c2ccc(Cl)cc2)nc(C(C)C)c1Sc1cc(Cl)cc(Cl)c1	82 to 83
O=C(c1ccccc1)c1cc(Cl)cc2c1S(=O)(=O)CC2C(=O)O (stereo not given)	158 to 161
CCOC(=O)c1c(C(F)(F)F)nc(C(F)(F)F)c(C(=O)O)c1OCC	115 to 117
CCOC(=O)c1c([N+](=O)[O-])c(-c2cccc([N+](=O)[O-])c2)[nH]c(=O)c1C(=O)OCC	188 to 190
CNCC(O)CN1CCN(CC(O)Cn2c3ccc(Br)cc3c3cc(Br)ccc32)CC1 (stereo not given)	65 to 75
COc1ccc(C(=O)N(C(=O)c2ccc(OC)cc2)c2nc3ccc(N(C)C)cc3c(NCc3cccs3)c2C#N)cc1	171
CCc1cc(=O)c(C(=O)OC)c(CC)[nH]1	124 to 127
Fc1ccc(-c2cc3[nH]ccn3n2)cc1	225 to 227
CCC(C)c1ccc(OC(C)=O)c(C2(OC(C)=O)C(=O)c3ccccc3C2=O)c1 (stereo not given)	118 to 120
Cc1ccc(C(c2ccccc2)C(O)CN(C)C)cc1 (stereo not given)	55 to 58
CCC(C)CNc1cccc(-c2ccnc3c(C(=O)c4cccs4)cnn23)c1 (stereo not given)	210 to 212
CC(=O)SC1CC(=O)N1C(Cl)C(=O)OCc1ccc([N+](=O)[O-])cc1 (stereo not given)	72 to 73
COc1ccc(/C=C/c2cc(OC)c(OC)c(OC)c2)cc1	152 to 155
CCS(=O)(=O)Nc1cc(-c2ncnc(NOC)c2Cl)c(F)cc1C#N	188 to 189
ClCc1ccc(-n2c3ccccc3c3ccccc32)cc1	88 to 89
CC1=NN=C(c2ccc([N+](=O)[O-])cc2)c2cc(Cl)ccc2C1	199 to 203
CC1=C(C)C(C)(OC(N)=O)N(c2ccc(Cl)c(Cl)c2)C1=O (stereo not given)	141 to 142

Compound	melting point [°C]
CCOC(=O)c1cc(O)n(-c2ccccc2)n1	183 to 184
COC(=O)c1c[nH]c(C=Cc2cnc3nc(NC(=O)C(C)(C)C)nc(O)c3c2)c1	> 260
O=C(O)C1(c2ccc(Nc3nc(N4CCC(O)CC4)nc4c3CCC4)cc2)CCC1	165 to 167
CCn1cnc2c(Nc3cccc([N+](=O)[O-])c3)nc(N[C@H]3CC[C@H](O)CC3)nc21	237 to 238
CC1CCc2ncc(C(=O)NN)c(=O)n21 (stereo not given)	136 to 137
ClCSc1n[nH]c(C(c2ccccc2)(c2ccccc2)c2ccccc2)n1	121 to 122
CCOC(=O)c1c(C)cc(NC(C)=O)c(C(=O)O)c1C	170 to 171
CC(=O)Nc1c(C(=O)c2ccccc2)[nH]c2cc(N)ccc12	219 to 221
CCCCCCC(=O)c1cn(CCCC(=O)O)c2ccccc12	58 to 60
CCCCCc1ccc(CCC2CCC(C#N)CC2)cc1 (stereo not given)	22.4
COc1cc(COc2nn(-c3ccccc3)cc2C(N)=O)ccc1OCc1nc(-c2ccco2)oc1C	175 to 176
CCC(=O)Oc1ccc(NCc2c(F)c(F)c(C(F)(F)F)c(F)c2F)cc1C(=O)O	188 to 191
O=c1ccc2ccc(OCCCN3CCC(C(O)(c4ccc(F)cc4)c4ccc(F)cc4)CC3)cc2o1	99 to 120
O=C(O)C(=O)Cc1ccc(-c2ccccc2)cc1	215 to 218
Cc1nc(NC(=O)c2cnn3c(C(F)F)cc(-c4ccc(C(F)(F)F)cc4)nc23)sc1S(N)(=O)=O	284
Nc1c(-c2csc(-c3ccncc3)n2)c(=O)[nH]c2ccccc12	> 250
NC(=O)c1ncccc1OCCNCc1ccccc1	110 to 112
CCCc1c(OCCCCCOc2ccc(C(=O)CCCC(=O)O)cc2CCC(=O)O)ccc2c1OCCC2=O	151 to 154
COC(=O)CC1CCNC1 (stereo not given)	68.5 to 69.5
Cn1nnnc1NCCSCc1csc(NC(=N)N)n1	80 to 83
Cc1[nH]c2ccccc2c1Cc1ccncc1	126 to 127
CCOC(=O)c1nc2cc(Br)c(Br)cc2[nH]c1=O	235 to 236
Cc1c(C(F)(F)C(F)(F)F)ncn1-c1ncc(C(F)(F)F)cc1Cl	71
CC(=O)N1CCC(CCC(=O)c2ccc(N(C)C)cc2)CC1	158 to 160
CCCCCCCNC(=S)N(C)c1cccc(-c2ccc(CCC(=O)O)cc2)c1	95 to 96

Compound	melting point [°C]
c1ccc(Oc2cccnc2N2CCNCC2)cc1	56 to 59
COc1cccc2c1CC(CC=O)C2=O (racemic)	71
Cc1c(C)c(N2CCN(c3ccc(C(N)=O)cc3)CC2)c(C)c2c1OC(C)C2 (stereo not given)	240 to 245
N#Cc1ccc(-c2ccc(OC[C@H](O)CCc3cccnc3)cc2)cc1	135 to 136
COc1ccc(Cc2c(-c3ccc(OC(F)F)c(OC4CC4)c3)[nH]c3cn[nH]c(=O)c23)cn1	220 to 221
O=C1CCc2ccc(NC(=O)c3cc4cccnc4n3Cc3cccc(F)c3)cc2N1	280 to 282
CC(Cc1ccc(C2OC(N)=NC2=O)cc1)NCC(O)c1cccc(C(F)(F)F)c1 (stereo not given)	152 to 164
CCCc1nc2cccc(C(=S)OC)c2n1Cc1ccc(-c2ccccc2-c2nc(=O)o[nH]2)cc1	220 to 221
CCOC(=O)c1cccc(NC(=O)C(COS(C)(=O)=O)NS(=O)(=O)c2ccc(Cl)cc2)c1 (racemic)	125 to 129
CC(=O)NC[C@H]1CN(c2ccc(-c3noc(C)n3)c(F)c2)C(=O)O1	177 to 179
CC(=O)Cc1ccc(O)cn1	119 to 120
CCOc1cc(Cn2cc(CCC(=O)O)c(-c3ccccc3)c2)cc(OCc2csc(-c3cccs3)n2)c1	104 to 105
O=C(O)CCCCCOc1nc(-c2ccccc2)c2ccccc2n1	112 to 114
CN1C=C(C(=O)O)C(=O)CC1c1ccc(Cl)cc1 (stereo not given)	205 to 206
CC(=O)OC1CC2(C)C(=O)CCC2C2C(C)CC3=CC(=O)CCC3C12 (stereo not given)	183
COC(=O)C[C@H](NC(c1ccccc1)(c1ccccc1)c1ccccc1)C(=O)C(=[N+]=[N-])C(=O)N(C)OC	130 to 131
O=C1CC(=O)CC(c2ccc(Cl)c(Cl)c2)C1	198 to 200
CCc1c(C)c2c(c(O)c1C/C=C(\C)CCC(=O)OC)C(=O)OC2	116
COc1ccc(-c2c3ccc(OC)cc3cc3sc4ccccc4c23)cc1	158 to 159
O=CCN1C=C(C(=O)O)Cc2cc(F)c(F)c(F)c21	220 to 222
COC(=O)N1CC(=O)N(C)c2ccc(F)cc21	206 to 208
Brc1ccc2c3c(cccc13)C(NCCCCCCCCCCCCn1ccnc1)=N2	111 to 116
Cn1c(C(=O)N[C@H]2CCCC[C@H]2C(=O)N[C@H](C#N)C2CC2)cc2ccccc21	242 to 246
CS(=O)c1csc(NC(=O)c2ccccc2O)n1 (stereo not given)	240
Cc1cccc2c1C(=O)N(C1CCC(=O)NC1=O)C2=O (stereo not given)	290 to 292
